From US9200046B2, “Reporter system for high throughput screening of compounds and uses thereof” (priority 2011, dated 2015)
“And” between values parts separate entries of the source, which are not always exact repeats. Equal entries are not always repeated. Structures can show the parent of a compound that is named as a salt. Where two headings read alike, the source gives them in different places.

Biological target: Nrf2-Keap1 complex (Homo sapiens, UniProt Q14145)
Assay: cell-based
Type: cell-based
Settings: for activation at 16 µM / activation at 32 µM: 3 h; for activation at 16 µM: read-out: Activation 100 nL; for activation at 32 µM: read-out: Activation 200 nL
[1] = Table 2, 100 nL compound, screen run at 16 and 32 μM, 3 hr
[2] = Table 2, 200 nL compound, screen run at 16 and 32 μM, 3 hr
[3] = Table 1A, 100 nL compound, screen run at 16 and 32 μM, 3 hr
[4] = Table 1A, 200 nL compound, screen run at 16 and 32 μM, 3 hr

Nrf2-Keap1 complex, sequence (Q14145 whole entry, one chain of several): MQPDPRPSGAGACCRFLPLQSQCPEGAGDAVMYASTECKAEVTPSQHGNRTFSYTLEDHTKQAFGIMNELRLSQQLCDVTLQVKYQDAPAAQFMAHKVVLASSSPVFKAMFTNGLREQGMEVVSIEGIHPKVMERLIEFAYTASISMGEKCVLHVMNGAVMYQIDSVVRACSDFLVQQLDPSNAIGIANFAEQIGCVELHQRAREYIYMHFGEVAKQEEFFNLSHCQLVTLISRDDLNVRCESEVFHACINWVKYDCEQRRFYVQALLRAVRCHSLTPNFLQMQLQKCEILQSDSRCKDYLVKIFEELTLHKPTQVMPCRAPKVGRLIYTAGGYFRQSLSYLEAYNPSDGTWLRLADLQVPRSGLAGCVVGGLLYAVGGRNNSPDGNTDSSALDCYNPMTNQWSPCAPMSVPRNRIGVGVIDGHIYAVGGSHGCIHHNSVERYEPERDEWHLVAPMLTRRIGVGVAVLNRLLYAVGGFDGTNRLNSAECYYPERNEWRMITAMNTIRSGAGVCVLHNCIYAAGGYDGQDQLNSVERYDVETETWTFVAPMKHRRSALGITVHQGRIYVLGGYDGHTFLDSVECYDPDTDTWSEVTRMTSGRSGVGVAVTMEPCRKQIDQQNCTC

Row | Compound | activation at 16 µM [%] | activation at 32 µM [%] | Activation 100 nL [%] | Activation 200 nL [%] | 100 nL (luminescence) [1] | 200 nL (luminescence) [2] | other results
1 | CCCSc1ccc2nc(NC(=O)OC)[nH]c2c1 [ALBENDAZOLE, reference compound] | 191 | 272 | – | – | – | – | 100 nL (luminescence): 4200; 200 nL (luminescence): 5292
2 | COc1cc([C@@H]2c3cc4c(cc3[C@H](OC(C)=O)[C@H]3COC(=O)[C@H]23)OCO4)cc(OC)c1OC [PODOPHYLLOTOXINACETATE] | – | – | 40 | 10 | 900 | 668 | –
3 | CC(=O)O[C@@H]1CC2C(C)(C)[C@H](O)C=C[C@]2(C)C2CC[C@]3(C)C(=CC(=O)O[C@H]3c3ccoc3)[C@@]21C (stereo partly drawn) [3-alpha-HYDROXYDEOXYGEDININ] | – | – | 55 | 94 | 1196 | 1764 | –
4 | COc1c(C)c2c(c(O)c1C/C=C(\C)CCC(=O)O)C(=O)OC2 [MYCOPHENOLICACID, reference compound] | 26 | 84 | – | – | 904 | 1428 | –
5 | COc1ccnc(C[S+]([O-])c2nc3cc(OC(F)F)ccc3[nH]2)c1OC (centres unmarked) [PANTOPRAZOLE, reference compound] | 25 | 60 | – | – | – | – | 100 nL (luminescence) [3]: 904; 200 nL (luminescence) [4]: 1504
6 | CC(=O)O[C@@H]1CC2C(C)(C)C=CC(=O)[C@]2(C)C2CC[C@@]3(C)[C@H](c4ccoc4)OC(=O)C4OC43[C@@]21C (some centres unmarked) [ISOGEDUNIN] | – | – | 155 | 188 | 2724 | 3188 | –
7 | COc1cc([C@@H]2c3cc4c(cc3[C@H](O)[C@H]3COC(=O)[C@@H]23)OCO4)cc(OC)c1OC [PICROPODOPHYLLOTOXIN] | 32 | 57 | – | – | 848 | 1196 | –
8 | O=C1OCCN1/N=C/c1ccc([N+](=O)[O-])o1 [FURAZOLIDONE, reference compound] | 43 | 45 | – | – | – | – | 100 nL (luminescence): 876; 200 nL (luminescence): 1288
9 | O=C1OC(=O)[C@H]2[C@@H]1[C@@H]1CC[C@H]2O1 [NORCANTHARIDIN] | – | – | 45 | 10 | 756 | 572 | –
10 | CCC(=O)O[C@H]1[C@H](O[C@@H]2[C@@H](C)[C@H](O[C@H]3C[C@@](C)(OC)[C@@H](O)[C@H](C)O3)[C@@H](C)C(=O)O[C@H](CC)[C@@](C)(O)[C@H](O)[C@@H](C)C(=O)[C@H](C)C[C@@]2(C)O)O[C@H](C)C[C@@H]1N(C)C [ERYTHROMYCINESTOLATE, reference compound] | 31 | 71 | – | – | – | – | –
11 | 1(2)alpha-EPDXYDEOXYDIHYDROGEDUNIN | – | – | 29 | 25 | 752 | 1028 | –
12 | CC(=O)NC(C(=O)O)C(C)(C)SN=O (centres unmarked) [reference compound] | – | – | 45 | 52 | 1044 | 1120 | –
13 | NC(=O)c1ccc[n+]([C@@H]2O[C@H](COP(=O)([O-])OP(=O)(O)OC[C@H]3O[C@@H](n4cnc5c(N)ncnc54)[C@H](O)[C@@H]3O)[C@@H](O)[C@H]2O)c1 [NADIDE, reference compound] | 31 | 16 | – | – | – | – | 100 nL (luminescence) [3]: 640; 200 nL (luminescence) [4]: 712
14 | CC1=C(/C=C/C(C)=C/C=C/C(C)=C\C(=O)O)C(C)(C)CCC1 [ISOTRETINON, reference compound] | – | – | 34 | 86 | 1068 | 1456 | –
15 | CC(=O)O[C@H]1CC[C@]2(C)C(C[C@@H](OC(C)=O)[C@]3(C)C4=CC(=O)O[C@H](c5ccoc5)[C@@]4(C)CCC23)C1(C)C (stereo partly drawn) [3-DEOXO-3beta-ACETOXYDEOXYDIHYDROGEDUNIN] | – | – | 59 | 61 | 1256 | 1252 | –
16 | COC(=O)/C=C/C(C)=C\C=C\C(C)=C\C=C\C=C(C)\C=C\C=C(C)\C=C\C(=O)O [BIXIN] | 113 | 113 | – | – | – | – | 100 nL (luminescence): 1880; 200 nL (luminescence): 3036
17 | C=C(CC)C(=O)c1ccc(OCC(=O)O)c(Cl)c1Cl [reference compound] | 139 | 156 | – | – | 2088 | 3604 | –
18 | COC(=O)C(N)CS (centres unmarked) [MECYSTEINEHYDROCHLORIDE, reference compound] | 82 | 216 | – | – | – | – | 100 nL (luminescence): 2028; 200 nL (luminescence): 3064
19 | COc1cc(O)c(C(=O)/C=C/c2ccccc2)c(OC)c1 [FLAVOKAWAINB] | 144 | -21 | – | – | 2564 | 8 | –
20 | COc1ccc2cc1Oc1ccc(cc1)C[C@H]1c3c(cc4c(c3Oc3cc5c(cc3OC)CCN(C)[C@@H]5C2)OCO4)CCN1C [CEPHARANTHINE, reference compound] | 98 | 9 | – | – | – | – | 100 nL (luminescence) [3]: 2348; 200 nL (luminescence) [4]: 584
21 | COc1cccc(O)c1O [3-METHOXYCATECHOL] | 28 | -15 | – | – | 736 | 116 | –

Row | Compound | activation at 16 µM [%] | activation at 32 µM [%] | Activation 100 nL [%] | Activation 200 nL [%] | 100 nL (luminescence) [1] | 200 nL (luminescence) [2] | other results
22 | CC1(C)[N+]([O-])=[N+]([O-])C1(C)Br (centres unmarked) | – | – | 55 | 83 | 1308 | 1976 | –
23 | COc1cc(O)c2c(=O)c(O)c(-c3ccc(O)c(O)c3)oc2c1 [RHAMNETIN] | 138 | 47 | – | – | 2216 | 1536 | –
24 | O=c1c(O)cccc2cc(O)c(O)c(O)c12 [PURPUROGALLIN] | 156 | 112 | – | – | 3508 | 2420 | –
25 | O=C(C=C(O)c1ccccc1)c1ccccc1O [2′,beta-DIHYDROXYCHALCONE] | – | – | 112 | −18 | 2064 | 44 | –
26 | C=C1CC[C@H]2O[C@]2(C)CC[C@@H]2[C@@H]1CC2(C)C [CARYLOPHYLLENEOXIDE] | – | – | 38 | 2 | 874 | 488 | –
27 | COc1ccc(/C=C/C(=O)c2cc(O)ccc2O)cc1 [2′,5′-DIHYDROXY-4-METHOXYCHALCONE] | 322 | 20 | – | – | 3188 | 800 | –
28 | O=c1cc(-c2ccc(O)c(O)c2)oc2cc(O)cc(O)c12 [Luteolin, 5,7,3′,4′-tetrahydroxyflavone] | – | – | – | – | – | – | hit strength in the screen (words): much lesser active than fisetin and quercetin; hit strength in the screen (words) (listed as luteolin): very poor Nrf2 activator
29 | O=C(/C=C/c1ccccc1)c1ccc(O)cc1 [4′-HYDROXYCHALCONE] | 217 | 76 | – | – | – | – | 100 nL (luminescence): 3674; 200 nL (luminescence): 1488
30 | COC1=CC(=O)C(C(=O)c2ccccc2)=CC1=O [2-BENZOYL-5-METHOXYBENZOQUINONE] | 72 | 83 | – | – | 994 | 2280 | –
31 | O=C(NC(=O)c1c(F)cccc1F)Nc1cc(Cl)c(OC(F)(F)C(F)C(F)(F)F)cc1Cl (centres unmarked) [LUFENURON] | 32 | 29 | – | – | – | – | 100 nL (luminescence): 644; 200 nL (luminescence): 1022
32 | CNc1ccccc1C(=O)N1CCc2c([nH]c3ccccc23)C1=O [RHETSININE] | 53 | 4 | – | – | – | – | 100 nL (luminescence) [3]: 1076; 200 nL (luminescence) [4]: 532
33 | CCCCCCCCCCCCCC(=O)O[C@@H]1[C@@H](C)[C@@]2(O)[C@@H](C=C(CO)C[C@]3(O)C(=O)C(C)=C[C@@H]23)[C@@H]2C(C)(C)[C@]12OC(C)=O [PHORBOLMYRISTATEACETATE, reference compound] | 47 | 16 | – | – | 776 | 712 | –
34 | AVOCADYNOFURAN | – | – | 25 | 29 | 582 | 1008 | –
35 | COc1ccc2c(c1)OCC(Cc1ccc(O)c(OC)c1)C2=O (centres unmarked) | – | – | – | – | – | – | 100 nL (luminescence): 1416 and 900
36 | COC(=O)NC(=S)Nc1ccccc1NC(=S)NC(=O)OC | – | – | 40 | 21 | 712 | 836 | –
37 | C=C(C)[C@H]1Cc2c(ccc3c2O[C@@H]2COc4cc(OC)c(OC)cc4[C@@H]2C3=O)O1 [ROTENONE] | 31 | 30 | – | – | 776 | 1136 | –
38 | CC1(C)C(C(Cl)Cl)C2(Cl)C(Cl)C(Cl)C1(Cl)C2(Cl)Cl (centres unmarked) [TOXAPHENE] | 395 | 226 | – | – | 5648 | 5632 | –
39 | O=[N+]([O-])c1cccc2c(Br)n[nH]c12 [3-BROMO-7-NITROINDAZOLE] | 30 | 8 | – | – | – | – | hit strength in the screen (words): modest hits; 100 nL (luminescence) [3]: 632; 200 nL (luminescence) [4]: 512
40 | Nc1ncnc2c1ncn2[C@H]1C[C@H](O)[C@@H](CO)O1 [DEOXYADENOSINE] | 32 | -3 | – | – | – | – | 100 nL (luminescence): 788; 200 nL (luminescence): 390
41 | O=C(O)C(S)C(S)C(=O)O (centres unmarked) [2,3-DIMERCAPTOSUCCINICACID, reference compound] | 238 | 123 | – | – | – | – | 100 nL (luminescence): 4452; 200 nL (luminescence): 2760
